Measurements as given in patent publication US20240270810A1, “PREPARATION AND APPLICATION OF POLYPEPTIDE” (GUANGDONG RAYNOVENT BIOTECH CO., LTD., priority 2021, published 2024).

Experiments:
GLP-1R = target: T1, GLP-1R (Homo sapiens, UniProt P43220); test: In vitro GLP-1R agonistic activity test (cAMP kit); type: cell-based; conditions: HEK293 host cells
T1 construct: host or cells: HEK293
Description: The cell lines were constructed by Wuxi […] (Shanghai) Co., Ltd. See details in Table 1 below. [table] [table] The test compounds were diluted at a 4-fold dilution factor in 10 points, starting from an initial concentration of 30 μM. The dilution was carried out by Bravo. • 1) 100 nL of compounds were transferred to an OptiPlate-384 plate by Echo. • 2) The OptiPlate-384 plate was centrifuged at 1000 rpm for 5 s. • 1) A GLP-1R/GIPR cell cryovial was placed in warm water at 37° C. for rapid thawing. • 2) The cell suspension was transferred into a 15 mL Transfer centrifugal tube and rinsed with 10 mL of HBSS gently. • 3) The centrifugal tube was centrifuged at 1000 rpm at room temperature for 1 min. • 4) The supernatant was discarded. • 5) The bottom cells were gently dispersed, then gently rinsed with 10 mL of HBSS, the centrifugal tube was centrifuged to settle the cells, and finally the cells were resuspended in an experimental buffer. • 6) Cell density and viability were measured by Vi-cell. • 7) The GLP-1R/GIPR cells were diluted with the experimental buffer to a concentration of 2.0*10^5/mL. • 8) […] of the diluted cell suspension was transferred into the OptiPlate-384 plate. • 9) Incubation was performed at room temperature for 30 min. • 1) 10 μL of 800 nM gradient diluted cAMP standard was added into the empty wells of the OptiPlate-384 plate. • 2) 10 μL of cAMP assay reagent was added. • 3) The OptiPlate-384 plate was covered with TopSeal-A film and incubated at room temperature for 60 min. The TopSeal-A film was removed, and readout was performed on En Vision.

in vivo [1] = test: in vivo; parameters: species or system SD rats; conditions: rat, sc, 0.048 mg/kg; for Cmax: Sprague-Dawley
Description: The pharmacokinetic characteristics in rodent animals following subcutaneous injection of the compounds were tested using standard protocols. In the experiment, the candidate compounds were formulated into clear solution, which was administered to rats by single subcutaneous injection (SC, 0.048 mpk). The vehicle for injection was citrate buffer solution (20 mM, pH=7). The whole blood was collected and processed to get the plasma. The drug concentration was analyzed by LC-MS/MS, and the pharmacokinetic parameters were calculated using Phoenix WinNonlin software.

in vivo [2] = test: in vivo; parameters: species or system C57BL/6 mice; conditions: sc, 0.048 mg/kg
Description: The pharmacokinetic characteristics in rodent animals following subcutaneous injection of the compounds were tested using standard protocols. In the experiment, the candidate compounds were formulated into clear solution, which was administered by subcutaneous injection (SC, 0.048 mpk). The vehicle for subcutaneous injection was citrate buffer solution (20 mM, pH=7). The whole blood was collected and processed to get the plasma. The drug concentration was analyzed by LC-MS/MS, and the pharmacokinetic parameters were calculated using Phoenix WinNonlin software.

in vitro = in vitro ADME; conditions: mouse, plasma
Description: To study the stability of the test compounds in the plasma of normal mice. • 1. Before the experiment, the clotted frozen plasma was thawed in a water bath at 37° C. The resulting plasma was centrifuged at 4000 rpm for 5 min. If there is blood clot, remove the clot and adjust the pH to 7.4±0.1. • 2. The test compound solution was prepared by diluting the compounds with DMSO to prepare a solution of 100 μM. • 3. 98 μL of plasma, as a blank control, was added with 2 μL of the test compound solution (100 μM) to get a mixed solution with a final concentration of 2 μM, which was incubated in a water bath at 37° C. • 4. 100 μL of H3PO4 solution and 800 μL of stop solution (a 100% solution of 200 ng/mL tolbutamide and 200 ng/ml labetalol in methanol) were respectively added at each time point (0, 10, 30, 60, and 120 min) to precipitate protein, which was then mixed thoroughly. • 5. The samples were centrifuged at 4000 rpm for 20 min, and 100 μL of supernatant was taken from each well for LC-MS/MS analysis.

human plasma albumin = type: in vitro ADME
Description: (§1) To study the binding of the test compounds to human/mouse plasma albumin. • 1. Blank matrix preparation: On the day of the experiment, the plasma was thawed in cold water and centrifuged at 3220 rpm for 5 min to remove all the blood clots. The pH of the resulting plasma was measured and adjusted to 7.4±0.1 with 1% of phosphoric acid or 1 N of sodium hydroxide as desired. • 2. Dilution of the test compounds: the test compounds were dissolved in dimethyl sulfoxide (DMSO) to prepare stock solutions of 10 mM and 2 mM, respectively. 2 μL of the stock solution (2 mM) was diluted with 98 μL of DMSO to obtain a working solution of 40 μM. 10 μL of the stock solution was diluted with 240 μL of DMSO to obtain a working solution of control compounds of 400 μM. A working solution of the compounds (5 μL) was mixed evenly with a blank matrix (995 μL) at a ratio of 1:200 to prepare a loading matrix. • 3. Analytical procedure • 3.1 Equal amounts of 30 μL of the loading matrix (n=2) were transferred into a sample collection plate to prepare Time 0 (T0) samples for residue determination. The samples were immediately matched with corresponding blank buffer to a final volume of 60 μL, with a volume ratio of plasma (the loading matrix) to buffer being 1:1 in each well. Then, into the T0 samples of the test compounds were respectively added 60 μL of 4% H3PO4 in H2O and 480 μL of stop solution containing internal standard. They were then stored at 2° C. to 8° C. together with other samples for further treatment. • 3.2 The remaining plasma samples were pre-incubated in a carbon dioxide incubator at 37±1° C. for 30 min. Protein-free samples (F samples) were prepared. Matrix-loaded samples (230 μL) were all transferred into polycarbonate tubes (n=2) and ultracentrifuged at 37° C. and 155,000×g (35000 rpm) for 4 h. • 3.3 To prepare T samples (test samples), an additional matrix-containing sample was transferred into a separate 96-well plate (sample incubation plate) and incubated at 37° C. for 4 h. • 3.4 At the end of centrifugation, 30 μL of protein-free samples (F samples) and 30 μL of T samples were taken from the second layer (beneath the upper layer) of the supernatant and transferred into a new sample collection plate. Each sample was mixed with corresponding blank buffer or matrix to a final volume of 60 μL, and the blank matrix:buffer volume ratio is 1:1. Into all the samples were added 60 μL of 4% H3PO4 solution in water and 480 μL of stop solution containing internal standard. The mixture was centrifuged at 4000 rpm for 20 min. 100 μL of supernatant for each sample was taken for LC-MS/MS analysis.

mouse plasma albumin = type: in vitro ADME
Description: as §1

T1 sequence (P43220 24-463, species assumed): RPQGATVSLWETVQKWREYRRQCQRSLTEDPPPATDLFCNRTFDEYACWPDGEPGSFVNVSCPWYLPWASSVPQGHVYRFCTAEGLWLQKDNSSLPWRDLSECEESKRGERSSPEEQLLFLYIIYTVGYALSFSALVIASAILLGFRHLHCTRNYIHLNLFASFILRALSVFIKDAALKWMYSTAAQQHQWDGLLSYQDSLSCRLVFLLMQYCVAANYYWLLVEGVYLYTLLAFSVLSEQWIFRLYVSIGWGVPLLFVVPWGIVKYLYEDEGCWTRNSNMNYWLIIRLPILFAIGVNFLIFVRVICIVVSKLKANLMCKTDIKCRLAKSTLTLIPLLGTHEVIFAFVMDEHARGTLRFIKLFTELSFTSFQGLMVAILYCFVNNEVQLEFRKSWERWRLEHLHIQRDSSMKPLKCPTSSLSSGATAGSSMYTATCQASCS

## CC[C@H](C)[C@H](NC(=O)[C@H](CC(C)C)NC(=O)[C@H](Cc1c[nH]c2ccccc12)NC(=O)[C@H](CCC(=O)O)NC(=O)[C@@H](NC(=O)[C@H](Cc1ccccc1)NC(=O)[C@H](C)NC(=O)[C@@H]1CCCCNC(=O)CN(C(=O)COCCOCCNC(=O)COCCOCCNC(=O)CC[C@H](NC(=O)CCCCCCCCCCCCCCCCCCC(=O)O)C(=O)O)CC(=O)NCCCC[C@H](NC(=O)[C@H](CCCCN)NC(=O)[C@H](CC(=O)O)NC(=O)[C@H](CC(C)C)NC(=O)C(C)(C)NC(=O)[C@@H](NC(=O)[C@H](CO)NC(=O)[C@H](Cc2ccc(O)cc2)NC(=O)[C@H](CC(=O)O)NC(=O)[C@H](CO)NC(=O)[C@@H](NC(=O)[C@H](Cc2ccccc2)NC(=O)[C@@H](NC(=O)CNC(=O)[C@H](CCC(=O)O)NC(=O)C(C)(C)NC(=O)[C@@H](N)Cc2ccc(O)cc2)[C@@H](C)O)[C@@H](C)O)[C@@H](C)CC)C(=O)N[C@@H](C)C(=O)N[C@@H](CCC(N)=O)C(=O)N1)C(C)C)C(=O)N[C@@H](C)C(=O)NCC(=O)NCC(=O)N1CCC[C@H]1C(=O)N[C@@H](CO)C(=O)N[C@@H](CO)C(=O)NCC(=O)N[C@@H](C)C(=O)N1CCC[C@H]1C(=O)N1CCC[C@H]1C(=O)N1CCC[C@H]1C(=O)N[C@@H](CO)C(N)=O [WX-005]
GLP-1R; with 1% HSA
  EC50: 7.63 nM
GLP-1R; without 1% HSA
  EC50: 0.036 nM
In vivo [1]
  Cmax: 28 nM
  AUC(0-t): 1.15 µM·h
  Tmax: 16 h
  half-life: 21 h
In vivo [2]; C57BL/6, mouse
  Cmax: 79 nM
In vivo [2]; mouse
  AUC(0-t): 2.24 µM·h
  Tmax: 12 h
  half-life: 16 h
In vitro
  half-life: > 4.82 h
Human plasma albumin
  PPB % unbound (H/M), H: NA/NA
Mouse plasma albumin
  PPB % unbound (H/M), M: NA/NA

## CC[C@H](C)[C@H](NC(=O)[C@H](CC(C)C)NC(=O)[C@H](Cc1c[nH]c2ccccc12)NC(=O)[C@H](CCC(=O)O)NC(=O)[C@@H](NC(=O)[C@H](Cc1ccccc1)NC(=O)[C@H](CCC(=O)O)NC(=O)[C@@H]1CCCCNC(=O)CN(C(=O)COCCOCCNC(=O)COCCOCCNC(=O)CC[C@H](NC(=O)CCCCCCCCCCCCCCCCCCC(=O)O)C(=O)O)CC(=O)NCCCC[C@H](NC(=O)[C@H](CCCCN)NC(=O)[C@H](CC(=O)O)NC(=O)[C@H](CC(C)C)NC(=O)C(C)(C)NC(=O)[C@@H](NC(=O)[C@H](CO)NC(=O)[C@H](Cc2ccc(O)cc2)NC(=O)[C@H](CC(=O)O)NC(=O)[C@H](CO)NC(=O)[C@@H](NC(=O)[C@H](Cc2ccccc2)NC(=O)[C@@H](NC(=O)CNC(=O)[C@H](CCC(=O)O)NC(=O)C(C)(C)NC(=O)[C@@H](N)Cc2ccc(O)cc2)[C@@H](C)O)[C@@H](C)O)[C@@H](C)CC)C(=O)N[C@@H](C)C(=O)N[C@@H](CCC(N)=O)C(=O)N1)C(C)C)C(=O)N[C@@H](C)C(=O)NCC(=O)NCC(=O)N1CCC[C@H]1C(=O)N[C@@H](CO)C(=O)N[C@@H](CO)C(=O)NCC(=O)N[C@@H](C)C(=O)N1CCC[C@H]1C(=O)N1CCC[C@H]1C(=O)N1CCC[C@H]1C(=O)N[C@@H](CO)C(N)=O [WX-009]
GLP-1R; without 1% HSA
  EC50: 0.014 nM
In vivo [1]; SD
  Tmax: 20 h
In vivo [1]
  Cmax: 24 nM
In vivo [2]; C57BL/6, mouse
  Cmax: 59 nM
  Tmax: 12 h
In vitro; pH 7.4
  half-life at 2 μM: > 3.98 h
Human plasma albumin
  PPB % unbound (H/M), H: NA/NA
Mouse plasma albumin
  PPB % unbound (H/M), M: NA/NA
